Experimental data taken from article PMC7957516, “Biochemical Properties of Tyrosinase from Aspergillus terreus and Penicillium copticola; Undecanoic Acid from Aspergillus flavus, an Endophyte of Moringa oleifera, Is a Novel Potent Tyrosinase Inhibitor” (Molecules, 2021).
In brackets after ≈: the same amount, converted by molar mass.

Columns and labels:
[1] = target: T1, tyrosinase from A. terreus; conditions: 50 mM L-tyrosine, Tris-HCl pH 7.0, 37 °C; 2 h preincubation with inhibitor at 30 °C
T1 construct: gene TYR

[2] = target: T2, tyrosinase from P. copticola; conditions: 50 mM L-tyrosine, Tris-HCl pH 7.0, 37 °C; 2 h preincubation with inhibitor at 30 °C; P. copticola not named in the value sentence, inferred as the second of the two enzymes
T2 construct: gene TYR

IC50 [1]: 21.5 µg/mL (≈ 151 µM) | IC50 [2]: 15.1 µg/mL (≈ 106 µM)
Structure (SMILES): O=c1cc(CO)occ1O [kojic acid]
